This test deals with P388 leukemia ip, CD2F1 mice, survival T/C. Briefly: NCI In Vivo Anticancer Drug Screen. Data for tumor model P388 Leukemia (intraperitoneal) in CD2F1 (CDF1) mice. Conditions: endpoint: median survival time, higher = longer survival. Summed up:
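Mice carrying the transplanted tumor received test compound or vehicle. Survival was recorded in each group, and the value is the treated-group measurement divided by that of the vehicle-treated control group.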

Where [1] appears, read: dose: 60.0 mg/kg/injection, schedule: Q01DX005 (ip), vehicle: saline with Tween-80.
[2] abbreviates: dose: 120.0 mg/kg/injection, schedule: Q01DX005 (ip), vehicle: saline with Tween-80.
The mark [3] stands for this setting: dose: 240.0 mg/kg/injection, schedule: Q01DX005 (ip), vehicle: saline with Tween-80.
Where [4] appears, read: dose: 50.0 mg/kg/injection, schedule: Q01DX005 (ip), vehicle: saline.
Where [5] appears, read: dose: 100.0 mg/kg/injection, schedule: Q01DX005 (ip), vehicle: saline.
Where [6] appears, read: dose: 200.0 mg/kg/injection, schedule: Q01DX005 (ip), vehicle: saline.
The mark [7] stands for this setting: dose: 50.0 mg/kg/injection, schedule: Q01DX005 (ip), vehicle: Klucel (hydroxypropylcellulose) (HPC).
Where [8] appears, read: dose: 100.0 mg/kg/injection, schedule: Q01DX005 (ip), vehicle: Klucel (hydroxypropylcellulose) (HPC).
Setting [9] is: dose: 200.0 mg/kg/injection, schedule: Q01DX005 (ip), vehicle: Klucel (hydroxypropylcellulose) (HPC).
The mark [10] stands for this setting: dose: 50.0 mg/kg/injection, schedule: Q01DX009 (ip), vehicle: Klucel (hydroxypropylcellulose) (HPC).
[11] abbreviates: dose: 100.0 mg/kg/injection, schedule: Q01DX009 (ip), vehicle: Klucel (hydroxypropylcellulose) (HPC).
Setting [12] is: dose: 60.0 mg/kg/injection, schedule: Q01DX005 (ip), vehicle: saline.
[13] abbreviates: dose: 120.0 mg/kg/injection, schedule: Q01DX005 (ip), vehicle: saline.
Where [14] appears, read: dose: 240.0 mg/kg/injection, schedule: Q01DX005 (ip), vehicle: saline.

“And” between values parts separate entries of the source, which are not always exact repeats. Identical values can stand only once. Inconclusive results and toxic doses are left out.

For the compound `CC1=C2CC(=O)OC(c3ccoc3)C2(C)CCC1C1(CC(=O)O)C2COC(=O)CC2OC1(C)C` (configuration not stated), the T/C reads like this: (dose: 0.75 mg/kg/injection, schedule: Q01DX009 (ip), vehicle: saline + alcohol) 99 % of control; (dose: 1.5 mg/kg/injection, schedule: Q01DX009 (ip), vehicle: saline + alcohol) 97 % of control; (dose: 3.0 mg/kg/injection, schedule: Q01DX009 (ip), vehicle: saline + alcohol) 106 % of control; (dose: 6.0 mg/kg/injection, schedule: Q01DX009 (ip), vehicle: saline + alcohol) 101 % of control.

As for `CC(=O)c1cc(Cl)ccc1OCC(O)CNc1ccccc1C(=O)c1ccccc1` (configuration not stated), the T/C is 103 % of control under setting [1], 87 % of control under setting [2] and 87 % of control under setting [3].

Take `COc1ccccc1C1OC(c2ccccc2OC)C2CCN(C)C2(C)O1` (configuration not stated): the T/C is, setting by setting: (dose: 100.0 mg/kg/injection, schedule: Q04DX002 (ip), vehicle: saline with Tween-80) 92 % of control; (dose: 200.0 mg/kg/injection, schedule: Q04DX002 (ip), vehicle: saline with Tween-80) 91 % of control; (dose: 400.0 mg/kg/injection, schedule: Q04DX002 (ip), vehicle: saline with Tween-80) 101 % of control.

Turning to `CCCC(=O)NC1C(Nc2ccc(S(=O)(=O)Nc3nc(C)cc(C)n3)cc2)OC(CO)C(O)C1O` (configuration not stated), the T/C reads like this: under setting [4], 97 % of control; under setting [5], 92 % of control; under setting [6], 99 % of control.

Take `N#Cc1c(-c2ccc(Cl)cc2)cn2c1[nH]c(=O)c1ccccc12`: the T/C under setting [1] was 107 % of control, the T/C under setting [2] was 102 % of control and the T/C under setting [3] was 96 % of control.

Take `COc1cc(NCCCCC(C)N)c2nccc(C)c2c1` (configuration not stated): the T/C reads like this: (dose: 12.5 mg/kg/injection, schedule: Q01DX009 (ip), vehicle: saline) 94 % of control; (dose: 25.0 mg/kg/injection, schedule: Q01DX009 (ip), vehicle: saline) 92 % of control.

Consider `Cc1cnc(NCCCCNc2ncc(C)c(-c3ccccc3O)n2)nc1-c1ccccc1O`, for which the T/C reads like this: under setting [7], 101 % of control; under setting [8], 101 % of control; under setting [9], 89 % of control.

On to `Cc1cc2cc3c(=O)n(C)c(=O)nc-3n(C)c2cc1C`, for which the T/C is 92 % of control (dose: 50.0 mg/kg/injection, schedule: Q01DX005 (ip), vehicle: saline with Tween-80); 98 % of control (dose: 100.0 mg/kg/injection, schedule: Q01DX005 (ip), vehicle: saline with Tween-80); 95 % of control (dose: 200.0 mg/kg/injection, schedule: Q01DX005 (ip), vehicle: saline with Tween-80).

Regarding `CCN1c2ccccc2S(=O)(=O)n2c(Cc3ccccc3)nnc21`, the T/C by setting is: (dose: 100.0 mg/kg/injection, schedule: Q01DX001 (ip), vehicle: saline with Tween-80) 93 % of control; (dose: 200.0 mg/kg/injection, schedule: Q01DX001 (ip), vehicle: saline with Tween-80) 92 % of control.

With `CC(=O)c1cc[c]([Sn]([CH3])([Cl])[c]2ccccc2)cc1` (configuration not stated), the T/C is 100 % of control (dose: 7.5 mg/kg/injection, schedule: Q01DX005 (ip), vehicle: Klucel (hydroxypropylcellulose) (HPC)); 107 % of control (dose: 15.0 mg/kg/injection, schedule: Q01DX005 (ip), vehicle: Klucel (hydroxypropylcellulose) (HPC)); 108 % of control (dose: 60.0 mg/kg/injection, schedule: Q01DX005 (ip), vehicle: Klucel (hydroxypropylcellulose) (HPC)).

Take `O=C(CCCc1ccc(N(CCCl)CCCl)cc1)NCC(O)C(O)C(O)C(O)CO` (configuration not stated): the T/C is, setting by setting: (dose: 15.0 mg/kg/injection, schedule: Q01DX005 (ip), vehicle: saline with Tween-80) 187 % of control; (dose: 30.0 mg/kg/injection, schedule: Q01DX005 (ip), vehicle: saline with Tween-80) 201 % of control and 206 % of control; under setting [1], 235 % of control and 250 % of control.

`O=C1C=CC(=O)C1=Cc1ccc([N+](=O)[O-])o1`: the T/C reads like this: (dose: 0.78 mg/kg/injection, schedule: Q04DX002 (ip), vehicle: saline with Tween-80) 106 % of control; (dose: 1.56 mg/kg/injection, schedule: Q04DX002 (ip), vehicle: saline with Tween-80) 97 % of control; (dose: 3.12 mg/kg/injection, schedule: Q04DX002 (ip), vehicle: saline with Tween-80) 97 % of control.

As to `Nc1nc(CCl)nc(Nc2ccccc2)n1`, the T/C was 101 % of control (dose: 12.5 mg/kg/injection, schedule: Q01DX009 (ip), vehicle: Klucel (hydroxypropylcellulose) (HPC)); 101 % of control (dose: 25.0 mg/kg/injection, schedule: Q01DX009 (ip), vehicle: Klucel (hydroxypropylcellulose) (HPC)); 101 % of control under setting [10]; 99 % of control under setting [11].

Consider `O=C1c2ccccc2C(=O)N1C[P+](c1ccccc1)(c1ccccc1)c1ccccc1`, for which the T/C by setting is: (dose: 0.78 mg/kg/injection, schedule: Q01DX009 (ip), vehicle: water) 102 % of control; (dose: 1.56 mg/kg/injection, schedule: Q01DX009 (ip), vehicle: water) 106 % of control; (dose: 3.13 mg/kg/injection, schedule: Q01DX009 (ip), vehicle: water) 106 % of control; (dose: 5.56 mg/kg/injection, schedule: Q01DX009 (ip), vehicle: water) 123 % of control; (dose: 25.0 mg/kg/injection, schedule: Q01DX009 (ip), vehicle: water) 98 % of control.

Turning to `CC(O)CN(CCN(CC(C)O)CC(C)O)CC(C)O` (configuration not stated), the T/C by setting is: under setting [4], 105 % of control; under setting [5], 103 % of control; under setting [6], 103 % of control.

Regarding `O=S1(=O)CC(N2CCOCC2)C2=C(O1)c1sc(-c3ccccc3)nc1CC2` (configuration not stated), the T/C reads like this: under setting [7], 104 % of control; under setting [8], 105 % of control; under setting [9], 98 % of control.

In the case of `CN1CCN(CCCN(c2cccc(C(F)(F)F)c2)c2cccc(C(F)(F)F)c2)CC1`, the T/C (dose: 50.0 mg/kg/injection, schedule: Q01DX001 (ip), vehicle: Klucel (hydroxypropylcellulose) (HPC)) is 100 % of control; the T/C (dose: 100.0 mg/kg/injection, schedule: Q01DX001 (ip), vehicle: Klucel (hydroxypropylcellulose) (HPC)) was 98 % of control; the T/C (dose: 200.0 mg/kg/injection, schedule: Q01DX001 (ip), vehicle: Klucel (hydroxypropylcellulose) (HPC)) is 92 % of control.

For the compound `CCc1cccc(C)c1NC(=O)C(=O)C(C#N)c1ccccc1` (configuration not stated), the T/C runs as follows: under setting [12], 105 % of control; under setting [13], 108 % of control; under setting [14], 108 % of control.

With `O=C1Oc2ccccc2C(=O)C1=S1CCCC1`, the T/C under setting [7] was 98 % of control, the T/C under setting [8] was 91 % of control and the T/C under setting [9] was 94 % of control.

Consider `CC(O)CCOCCCBr` (configuration not stated), for which the T/C reads like this: under setting [4], 100 % of control; under setting [5], 102 % of control; under setting [6], 102 % of control.

In the case of `c1ccc(C[N+]23CCN(CC2)CC3)cc1`, the T/C reads like this: (dose: 12.5 mg/kg/injection, schedule: Q04DX003 (ip), vehicle: saline) 109 % of control; (dose: 25.0 mg/kg/injection, schedule: Q04DX003 (ip), vehicle: saline) 95 % of control; (dose: 50.0 mg/kg/injection, schedule: Q04DX003 (ip), vehicle: saline) 90 % of control.

Consider `CCC(C(=O)O)C(=O)O.[NH-]CC[NH-].[Pt+2]`, for which the T/C by setting is: (dose: 25.0 mg/kg/injection, schedule: Q01DX009 (ip), vehicle: saline with Tween-80) 190 % of control; (dose: 33.0 mg/kg/injection, schedule: Q04DX003 (ip), vehicle: saline) 120 % of control; under setting [10], 160 % of control; (dose: 50.0 mg/kg/injection, schedule: Q01DX009 (ip), vehicle: saline with Tween-80) 218 % of control; (dose: 50.0 mg/kg/injection, schedule: Q04DX003 (ip), vehicle: saline with Tween-80) 181 % of control; under setting [11], 205 % of control. The T/C reads like this: (dose: 100.0 mg/kg/injection, schedule: Q04DX003 (ip), vehicle: saline with Tween-80) 195 % of control; (dose: 200.0 mg/kg/injection, schedule: Q01DX009 (ip), vehicle: Klucel (hydroxypropylcellulose) (HPC)) 196 % of control; (dose: 400.0 mg/kg/injection, schedule: Q04DX003 (ip), vehicle: saline) 155 % of control.

For `CCCCCc1nc2c(c3c1CCCC3)CCCC2`, the T/C is 98 % of control under setting [12], 106 % of control under setting [13] and 107 % of control under setting [14].

These data come from PubChem BioAssay AID330 (DTP/NCI, 2004).
